Where two headings read alike, the source gives them in different places.
Columns and labels:
Amyloid = Amyloid dissociation; parameters: key: + = positive result or enzyme activation
JNK-1 = JNK-1 (Homo sapiens, UniProt P45983); assay: Protein kinase panel: JNK-1; assay type: biochemical; conditions: panel of 14 protein kinases
Source text: (§1) A panel of 14 protein kinases was screened against Cmpd CNB-001. […] In HT22 cells and primary cortical neurons, Cmpd CNB-001 blocked p38 and JNK phosphorylation caused by glutamate by about 30%, and inhibited cell death. The phosphorylation of the other tested kinases was not altered.

JNK-2 = JNK-2 (Homo sapiens, UniProt P45984); assay: Protein kinase panel: JNK-2; assay type: biochemical; conditions: panel of 14 protein kinases
Sequence of JNK-2 (P45984 whole entry, species assumed): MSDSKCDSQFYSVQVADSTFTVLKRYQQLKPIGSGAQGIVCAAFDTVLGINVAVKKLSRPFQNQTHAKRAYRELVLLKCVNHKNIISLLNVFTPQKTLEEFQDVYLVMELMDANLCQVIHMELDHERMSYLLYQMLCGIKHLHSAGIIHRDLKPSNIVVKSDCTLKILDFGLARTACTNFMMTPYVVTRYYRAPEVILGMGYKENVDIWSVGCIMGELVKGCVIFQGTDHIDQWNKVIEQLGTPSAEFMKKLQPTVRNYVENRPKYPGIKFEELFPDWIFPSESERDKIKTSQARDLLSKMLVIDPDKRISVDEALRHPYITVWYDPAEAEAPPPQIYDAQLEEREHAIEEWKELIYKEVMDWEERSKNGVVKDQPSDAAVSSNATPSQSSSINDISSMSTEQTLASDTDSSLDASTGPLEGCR
Source text: as §1

JNK = JNK phosphorylation caused by glutamate; assay type: cell-based; conditions: HT22 cells and primary cortical neurons
Source text: as §1

JNK-3 = JNK-3 (Homo sapiens, UniProt P53779); assay: Protein kinase panel: JNK-3; assay type: biochemical; conditions: panel of 14 protein kinases
Sequence of JNK-3 (P53779 whole entry, species assumed): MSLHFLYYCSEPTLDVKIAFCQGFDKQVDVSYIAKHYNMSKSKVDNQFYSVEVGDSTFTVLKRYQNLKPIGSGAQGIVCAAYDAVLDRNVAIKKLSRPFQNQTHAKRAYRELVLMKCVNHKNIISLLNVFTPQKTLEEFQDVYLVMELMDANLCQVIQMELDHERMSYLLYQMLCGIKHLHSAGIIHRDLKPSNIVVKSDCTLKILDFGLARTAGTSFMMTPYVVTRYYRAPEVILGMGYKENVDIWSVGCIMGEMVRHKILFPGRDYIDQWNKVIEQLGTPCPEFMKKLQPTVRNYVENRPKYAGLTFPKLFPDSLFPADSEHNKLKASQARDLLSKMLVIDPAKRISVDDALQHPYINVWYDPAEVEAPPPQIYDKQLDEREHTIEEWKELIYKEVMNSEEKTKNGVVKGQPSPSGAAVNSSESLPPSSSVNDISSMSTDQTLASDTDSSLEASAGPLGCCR
Source text: as §1

Rabbit stroke = Rabbit stroke model; parameters: key: + = positive result or enzyme activation; conditions: in vivo
HT22 cells = assay: Chemical ischemia (iodoacetic acid) in HT22 mouse hippocampal cells; assay type: cell-based; parameters: key to In Vitro Ischemia, Mouse hippocampal cells: + = positive result or enzyme activation; conditions: for Cell death caused by treatment of HT22 cells with 20 μM IAA: 20 μM iodoacetic acid for 2 hr, MTT after 24 hr
Procedure: FIG. 2 illustrates the ability of invention compounds CNB-001 and J147 to protect nerve cells from chemical ischemia. HT22 cells were treated with 20 μM iodoacetic acid for 2 hr alone or in the presence of varying concentrations of CNB-001 or J147. % survival was confirmed by microscopy and measured after 24 hr by the MTT assay.
Most cell culture models of ischemia utilize primary cortical cultures that are exposed to some form of oxygen and glucose deprivation. While these assays may come closer to mimicking the in vivo conditions than assays employing neuronal cell lines, they have a number of problems that make them difficult to use for the routine screening of potential neuroprotective compounds. The most serious problem is that the condition needed to kill a fixed percentage of cells are highly variable from experiment to experiment, making it very difficult to get accurate values for neuroprotective activity. In order to circumvent this and other problems, a mouse nerve cell line was used in combination with chemical ischemia as a screen for potential neuroprotective drugs for ischemia. To induce chemical ischemia, iodoacetic acid (IAA), a well known, irreversible inhibitor of the glycolytic enzyme glyceraldehyde 3-phosphate dehydrogenase (G3PDH) (see B. S. Winkler et al., Modulation of the Pasteur effect in retinal cells: implications for understanding compensatory metabolic mechanisms, in Exp Eye Res 76 (2003) 715-723) was used in combination with the HT22 mouse hippocampal cell line. IAA has been used in a number of other studies to induce ischemia in nerve cells. The changes following IAA treatment of neural cells are very similar to changes which have been seen in animal models of CNS trauma and ischemia. These include alterations in membrane potential, breakdown of phospholipids, loss of ATP, and an increase in reactive oxygen species. A 2 hr treatment of the HT22 cells with 20 μM IAA induces over 90% cell death 20 hr later. […]

p38 = p38 phosphorylation caused by glutamate; assay type: cell-based; conditions: HT22 cells and primary cortical neurons
Source text: as §1

[1] = Plasma concentration and brain content after a single oral dose by gavage; assay type: in vivo, mouse; conditions: for concentration at 0 hr / concentration at 1 hr / concentration at 2 hr: female, mouse, BALB/c mice
Procedure: The pharmacokinetic properties of a single oral dose of exemplary compounds according to the invention, i.e., Cmpd 11-001 and Cmpd J147, are studied in 10-week old female BALB/c mice. Cmpd 11-001 or J147 are emulsified in 2.5% carboxymethyl cellulose at a concentration of 20 mg/ml and administered by gavage at a dosage of 400 mg/kg body weight or 200 mg/kg body weight, respectively. The mice are then sacrificed at various intervals after administration (0, 1 hr, 2 hr, 4 hr, and 6 hr).
Plasma is obtained from blood (mixed with K3EDTA to prevent coagulation) by centrifugation at 4,300 g for 10 min, extracted twice with ethyl acetate/propanol (9:1, v/v). The extracts are centrifuged at 5,000 g for 10 min to form aqueous/organic layers. The organic layer containing Cmpd 11-001 is centrifuged at 20,000 g for 10 min to sediment particles. The extraction recovery from plasma is approximately 90%. Thirty μl thereof were analyzed by HPLC equipped with a C18 reversed phase column—Cmpd 11-001 is detected at 330 nm. The elution solvent system is 50% acetonitrile, 50% water and 1 g/L trifluoroacetic acid with a flow rate of 1 ml/min.
To study the distribution of compounds according to the invention in brain at various time intervals (0, 1 hr, 2 hr, 4 hr, and 6 hr) after gavage (400 mg/kg or 200 mg/kg as noted above), the mice are anesthetized with cloral hydrate and perfused through the heart with phosphate buffered saline (PBS) to remove blood in the brain. The mice are then decapitated, the brains removed, and quickly frozen and stored at −80° C. before further analysis. To measure the level of invention compound in the brain, weighed brain pieces are homogenized by sonication in 3 volumes of PBS. The homogenates are then extracted and measured by HPLC as described above.

[2] = system: double transgenic (mutated PS1 and APP) Alzheimer's mouse model; assay: Morris Water Maze in Alzheimer's mouse model; assay type: in vivo; conditions: in the food for 4 months at 100 ppm
Procedure: FIG. 7 illustrates that […] improves spatial learning and memory in the Morris Water Maze. A circular water tank four feet in diameter, containing water at 26-27° C., is made opaque with white pigment, and a platform placed in the NW quadrant. Mice were randomly introduced to the tank facing the wall in one of the other quadrants for a trial of 50 s or until they found the platform. Upon reaching the platform, or at the end of the 50 s, the mice were placed on the platform, the mice were left on the platform for 15 s. There were four trials per mouse each day for seven consecutive days. The data are presented as the average time to reach the platform (escape latency) of the 4 daily trials for each group of mice. There are 3 groups of 5 mice each. One is wild type (circles), another is a double transgenic (mutated PS1 and APP) Alzheimer's mouse model (rectangle), and the third is the AD mouse plus J147 that has been in the food for 4 months at 100 ppm (diamond).

[3] = brain, 200 mg/kg single oral dose by gavage, read-out: Brain content
[4] = plasma, 200 mg/kg single oral dose by gavage, read-out: Plasma concentration

Sequence of JNK-1 (P45983 whole entry, species assumed): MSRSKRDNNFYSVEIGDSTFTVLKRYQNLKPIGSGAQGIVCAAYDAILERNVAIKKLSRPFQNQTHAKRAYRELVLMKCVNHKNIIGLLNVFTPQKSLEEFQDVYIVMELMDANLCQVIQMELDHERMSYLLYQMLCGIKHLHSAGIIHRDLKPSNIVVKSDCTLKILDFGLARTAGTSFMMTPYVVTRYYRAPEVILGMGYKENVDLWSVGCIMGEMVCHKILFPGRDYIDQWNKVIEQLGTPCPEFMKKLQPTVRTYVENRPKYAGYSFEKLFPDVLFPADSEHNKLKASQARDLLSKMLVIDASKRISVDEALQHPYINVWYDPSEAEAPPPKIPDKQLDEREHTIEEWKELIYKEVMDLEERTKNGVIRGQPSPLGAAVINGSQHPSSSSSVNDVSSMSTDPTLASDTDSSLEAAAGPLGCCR

Compound | Amyloid Dissociation (Amyloid) | Inhibition of kinase (JNK-1) | Inhibition of kinase (JNK-2) | Block of JNK phosphorylation caused by glutamate (JNK) | Inhibition of kinase (JNK-3) | Animal Models, Rabbit stroke (Rabbit stroke) | In Vitro Ischemia, Mouse hippocampal cells (HT22 cells) | Cell death caused by treatment of HT22 cells with 20 μM IAA (HT22 cells) | Block of p38 phosphorylation caused by glutamate (p38) | Time at which maximum plasma concentration is reached after administration ([1]; 200 mg/kg single oral dose by gavage, mice) | concentration at 0 hr [1, 3] [ng/g] | concentration at 1 hr [1, 3] [ng/g] | concentration at 2 hr [1, 3] [ng/g] | concentration at 0 hr [1, 4] [ng/mL] | concentration at 1 hr [1, 4] [ng/mL] | concentration at 2 hr [1, 4] [ng/mL] | Retention in the brain ([1]; relative to 11-011, after oral gavage in mice) | Deficit in memory of AD mice relative to wild type (escape latency) [2]
COc1cc(/C=C/c2cc(/C=C/c3ccc(O)c(OC)c3)n(-c3ccccc3)n2)ccc1O [CNB-001] | + | None of the other enzymes that were assayed, including JNK-1 or JNK-2, were affected | None of the other enzymes that were assayed, including JNK-1 or JNK-2, were affected | about 30% | partially inhibited | + | + | can be prevented | about 30% |  |  |  |  |  |  |  |  | 
COc1cccc(/C=N/N(C(=O)C(F)(F)F)c2ccc(C)cc2C)c1 [Compound J147] |  |  |  |  |  |  |  | can be prevented |  | about 1 hr | 0 | 3900 | 2800 | 0 | 5600 | 300 | improved ability to be retained in the brain | corrected

Source: patent US8779002B2, “Methods for treating a variety of diseases and conditions, and compounds useful therefor” (Salk Institute for Biological Studies, priority 2007, dated 2014)
